Structures are written as SMILES. Where a name gives a salt, the structure may show the parent alone.

The test has as its target T1, angiotension converting enzyme (Cavia porcellus, UniProt H0UWL7).
T1 construct: from tissue; host or cells: guinea pig ileum
T1 sequence (H0UWL7 33-1302): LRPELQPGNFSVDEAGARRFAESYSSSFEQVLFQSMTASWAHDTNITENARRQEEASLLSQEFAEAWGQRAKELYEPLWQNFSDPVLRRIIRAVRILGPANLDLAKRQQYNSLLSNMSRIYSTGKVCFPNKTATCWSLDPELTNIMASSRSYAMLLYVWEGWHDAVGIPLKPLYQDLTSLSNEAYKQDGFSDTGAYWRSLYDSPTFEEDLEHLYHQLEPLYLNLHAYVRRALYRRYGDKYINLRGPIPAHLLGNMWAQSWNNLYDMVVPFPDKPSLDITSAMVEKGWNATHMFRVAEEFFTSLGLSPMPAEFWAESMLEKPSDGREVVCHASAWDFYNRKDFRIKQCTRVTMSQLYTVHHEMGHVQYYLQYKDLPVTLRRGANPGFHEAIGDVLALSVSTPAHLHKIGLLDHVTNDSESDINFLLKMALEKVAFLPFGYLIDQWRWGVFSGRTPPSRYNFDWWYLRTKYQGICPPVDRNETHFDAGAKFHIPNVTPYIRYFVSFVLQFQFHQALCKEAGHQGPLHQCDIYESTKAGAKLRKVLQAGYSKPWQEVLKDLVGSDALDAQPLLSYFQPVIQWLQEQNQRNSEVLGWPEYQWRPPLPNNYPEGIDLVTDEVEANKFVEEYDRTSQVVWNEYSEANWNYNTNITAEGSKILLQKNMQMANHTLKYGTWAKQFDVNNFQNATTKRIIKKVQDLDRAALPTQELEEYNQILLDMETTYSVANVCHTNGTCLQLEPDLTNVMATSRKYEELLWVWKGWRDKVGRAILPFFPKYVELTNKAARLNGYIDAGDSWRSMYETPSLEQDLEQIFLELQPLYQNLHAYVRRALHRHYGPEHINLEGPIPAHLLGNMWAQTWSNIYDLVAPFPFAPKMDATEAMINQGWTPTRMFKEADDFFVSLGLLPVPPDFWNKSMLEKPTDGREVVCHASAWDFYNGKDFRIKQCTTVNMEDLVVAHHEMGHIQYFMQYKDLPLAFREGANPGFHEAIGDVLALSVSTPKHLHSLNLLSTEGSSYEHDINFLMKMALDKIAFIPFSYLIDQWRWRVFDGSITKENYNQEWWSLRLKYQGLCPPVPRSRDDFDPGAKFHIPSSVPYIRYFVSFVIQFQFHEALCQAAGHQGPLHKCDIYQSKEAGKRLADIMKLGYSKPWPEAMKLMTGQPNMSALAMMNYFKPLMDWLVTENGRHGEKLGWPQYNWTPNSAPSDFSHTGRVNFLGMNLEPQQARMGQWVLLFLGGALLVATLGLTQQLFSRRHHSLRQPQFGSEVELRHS
Description: angiotensin converting enzyme inhibition in guinea pig ileum (inhibition of contractile responses to Angiotensin I). It is filed as cell-based. To be noted: dose-dependent inhibition of contractile responses to Angiotensin I, in vitro, read-out: EC50 (the source's name). The source says: (b) ACE inhibition in vitro
In any assay for angiotension converting enzyme inhibition in guinea pig ileum, dose-dependent inhibition of contractile responses to Angiotensin I gave the following results: […]

As to `CC(C)NCC(O)COc1cccc2c(OCC(=O)NCCCC[C@H](NC(C)C(=O)N3CCC[C@H]3C(=O)O)C(=O)O)cccc12` (stereo partly drawn) [Example 2, N-(l(S)-Carboxy-5-(2-[5-(2(S,R)-hydroxy-3-isopropylaminopropoxy)-naphth-1-yloxy]acetamido)pentyl)-(S,R)-alanyl-(S)-proline dihydrochloride acetate hemihydrate], the IC50 came out at 13.5 nM. As for `CC(C)NCC(O)COc1cccc2ccc(CNCCCC[C@H](NC(C)C(=O)N3CCC[C@H]3C(=O)O)C(=O)O)cc12` (stereo partly drawn) [Example 5, N-(1(S)-Carboxy-5-[8-(2(S,R)-hydroxy-3-isopropylaminopropoxy)naphth-2-ylmethylamino]pentyl)-(S,R)-alanyl-(S)-proline tristrifluoroacetate], the IC50 was 9.6 nM.

The values are drawn from patent EP0237239A2, “New compounds” (THE WELLCOME FOUNDATION LIMITED, priority 1986, dated 1987).
